Our source for the IC50 values is US20240270759A1, “Preparation of SHP2 phosphatase inhibitors and its applications” (Ya Therapeutics Inc, priority 2021, published 2024).

The assay addresses T1, SHP2 full-length protein (Homo sapiens, UniProt Q06124).
T1 construct: purchased BPS Bioscience #79330
T1 sequence (Q06124 1-593): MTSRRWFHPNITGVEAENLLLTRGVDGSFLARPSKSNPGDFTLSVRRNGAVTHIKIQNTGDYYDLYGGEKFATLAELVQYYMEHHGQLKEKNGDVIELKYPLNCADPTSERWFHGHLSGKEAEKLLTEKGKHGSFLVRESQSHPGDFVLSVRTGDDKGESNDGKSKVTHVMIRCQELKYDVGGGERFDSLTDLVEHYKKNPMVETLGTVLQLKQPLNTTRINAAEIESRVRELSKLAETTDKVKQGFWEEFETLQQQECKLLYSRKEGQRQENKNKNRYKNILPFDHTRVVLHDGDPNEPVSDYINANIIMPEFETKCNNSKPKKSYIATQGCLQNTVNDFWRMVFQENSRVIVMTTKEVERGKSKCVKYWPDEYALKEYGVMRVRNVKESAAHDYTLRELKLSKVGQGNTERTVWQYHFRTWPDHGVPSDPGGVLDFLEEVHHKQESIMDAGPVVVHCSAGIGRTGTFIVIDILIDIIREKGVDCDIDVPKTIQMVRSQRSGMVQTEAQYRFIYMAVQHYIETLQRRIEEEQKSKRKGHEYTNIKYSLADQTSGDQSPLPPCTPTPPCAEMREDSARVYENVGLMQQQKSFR
Nature of the assay: SHP2 allosteric inhibition experiment (Homogeneous Full Length SHP-2 Assay Kit). The assay is classed as biochemical. The following applies: full-length SHP2 0.06 nM with SHP-2 activating peptide; ten-point, 1 μM to 0.05 nM; read-out: IC50 Values of Compounds Inhibiting SHP2.

Structures are written as SMILES.

One may read the IC50 as the point on the concentration scale where inhibition reaches its midpoint. `C[C@@H]1OCC2(CCN(c3cnc(Sc4cccc(-c5cnccn5)c4Cl)nc3)CC2)[C@@H]1N` [Compound 104, (3S,4S)-8-(2-((2-chloro-3-(pyrazine-2-yl)phenyl)mercapto)pyrimidine-5-yl)-3-methyl-2-oxa-8-azaspiro[4.5]decane-4-amine]: the concentration for half-maximal inhibition (IC50) was at most 10 nM.

For the compound `C[C@@H]1OCC2(CCN(c3cnc(Sc4cccc(-c5cccnc5)c4Cl)nc3)CC2)[C@@H]1N` [Compound 105, (3S,4S)-8-(2-((2-chloro-3-(pyridine-3-yl)phenyl)mercapto)pyrimidine-5-yl)-3-methyl-2-oxa-8-azaspiro[4.5]decane-4-amine], the 50% inhibitory concentration (IC50) is at most 10 nM.

As for `C[C@@H]1OCC2(CCN(c3cnc(Sc4cccc(-c5ccncn5)c4Cl)nc3)CC2)[C@@H]1N` [Compound 106, (3S,4S)-8-(2-((2-chloro-3-(pyrimidine-4-yl)phenyl)mercapto)pyrimidine-5-yl)-3-methyl-2-oxa-8-azaspiro[4.5]decane-4-amine], the IC50 is at most 10 nM.

For `C[C@@H]1OCC2(CCN(c3cnc(Sc4cccc(Nc5cccnc5)c4Cl)nc3)CC2)[C@@H]1N` [Compound 107, (3S,4S)-8-(2-((2-chloro-3-(pyridine-3-amino)phenyl)mercapto)pyrimidine-5-yl)-3-me thyl-2-oxa-8-azaspiro[4.5]decane-4-amine], the IC50 lay within 10 to 100 nM.

Turning to `C[C@@H]1OCC2(CCN(c3cnc(Sc4cccc(Nc5ncccn5)c4Cl)nc3)CC2)[C@@H]1N` [Compound 108, (3S,4S)-8-(2-((2-chloro-3-(pyrimidine-2-amino)phenyl)mercapto)pyrimidine-5-yl)-3-methyl-2-oxa-8-azaspiro[4.5]decane-4-amine], the half-maximal inhibitory concentration (IC50) lay in the range of 10 to 100 nM.

Regarding `C[C@@H]1OCC2(CCN(c3cnc(Sc4cccc(Nc5cnccn5)c4Cl)nc3)CC2)[C@@H]1N` [Compound 109, (3S,4S)-8-(2-((2-chloro-3-(pyrazine-2-amino)phenyl)mercapto)pyrimidine-5-yl)-3-me thyl-2-oxa-8-azaspiro[4.5]decane-4-amine], the concentration for half-maximal inhibition (IC50) fell in the range of 10 to 100 nM.

For `C[C@@H]1OCC2(CCN(c3cnc(Sc4cccc(Nc5ccncn5)c4Cl)nc3)CC2)[C@@H]1N` [Compound 110, (3S,4S)-8-(2-((2-chloro-3-(pyrimidine-4-amino)phenyl)mercapto)pyrimidine-5-yl)-3-methyl-2-oxa-8-azaspiro[4.5]decane-4-amine], the IC50 was 10 to 100 nM.

In the case of `C[C@@H]1OCC2(CCN(c3ncc(Sc4cccc(-c5ccn(C)n5)c4Cl)cn3)CC2)[C@@H]1N` [Compound 111, (3S,4S)-8-(5-((2-chloro-3-(1-methyl-1H-pyrazole-3-yl)phenyl)mercapto)pyrimidine-2-yl)-3-methyl-2-oxa-8-azaspiro[4.5]decane-4-amine], the IC50 was in the range of 10 to 100 nM.

Take `CCn1ccc(-c2cccc(Sc3cnc(N4CCC5(CC4)CO[C@@H](C)[C@H]5N)nc3)c2Cl)n1` [Compound 112, (3S,4S)-8-(5-((2-chloro-3-(1-ethyl-1H-pyrazole-3-yl)phenyl)mercapto)pyrimidine-2-yl)-3-methyl-2-oxa-8-azaspiro[4.5]decane-4-amine]: the IC50 was in the range of 10 to 100 nM.

Consider `CC(C)n1ccc(-c2cccc(Sc3cnc(N4CCC5(CC4)CO[C@@H](C)[C@H]5N)nc3)c2Cl)n1` [Compound 113, (3S,4S)-8-(5-((2-chloro-3-(1-isopropyl-1H-pyrazole-3-yl)phenyl)mercapto)pyrimidine-2-yl)-3-methyl-2-oxa-8-azaspiro[4.5]decane-4-amine], for which the half-inhibitory concentration (IC50) fell in the range of 10 to 100 nM.

For `C[C@@H]1OCC2(CCN(c3ncc(Sc4cccc(NC(=O)c5c(O)nc6n(c5=O)CCCC6)c4Cl)cn3)CC2)[C@@H]1N` [Compound 114, N-(3-((2-((3S,4S)-4-amino-3-methyl-2-oxa-8-azaspiro[4.5]decane-8-yl)pyrimidine-5-yl)mercapto)-2-chlorophenyl)-2-hydroxyl-4-oxo-6,7,8,9-tetrahydro-4H-pyridinyl[1,2-a]pyrimidine-3-carboxamide], the concentration for half-maximal inhibition (IC50) was 10 to 100 nM.

Consider `C[C@@H]1OCC2(CCN(c3ncc(Sc4cccc(-c5cncnc5)c4Cl)cn3)CC2)[C@@H]1N` [Compound 115, (3S,4S)-8-(5-((2-chloro-3-(pyrimidine-5-yl)phenyl)mercapto)pyrimidine-2-yl)-3-methyl-2-oxa-8-azaspiro[4.5]decane-4-amine], for which the half-maximal inhibitory concentration (IC50) is at most 10 nM.

Take `C[C@@H]1OCC2(CCN(c3ncc(Sc4cccc(-c5cnccn5)c4Cl)cn3)CC2)[C@@H]1N` [Compound 116, (3S,4S)-8-(5-((2-chloro-3-(pyrazine-2-yl)phenyl)mercapto)pyrimidine-2-yl)-3-methyl-2-oxa-8-azaspiro[4.5]decane-4-amine]: the 50% inhibitory concentration (IC50) is at most 10 nM.

Consider `C[C@@H]1OCC2(CCN(c3ncc(Sc4cccc(-c5cccnc5)c4Cl)cn3)CC2)[C@@H]1N` [Compound 117, (3S,4S)-8-(5-((2-chloro-3-(pyridine-3-yl)phenyl)mercapto)pyrimidine-2-yl)-3-methyl-2-oxa-8-azaspiro[4.5]decane-4-amine], for which the IC50 is at most 10 nM.

Take `C[C@@H]1OCC2(CCN(c3ncc(Sc4cccc(-c5ccncn5)c4Cl)cn3)CC2)[C@@H]1N` [Compound 118, (3S,4S)-8-(5-((2-chloro-3-(pyrimidine-4-yl)phenyl)mercapto)pyrimidine-2-yl)-3-methyl-2-oxa-8-azaspiro[4.5]decane-4-amine]: the IC50 is at most 10 nM.

Regarding `C[C@@H]1OCC2(CCN(c3ncc(Sc4cccc(Nc5cccnc5)c4Cl)cn3)CC2)[C@@H]1N` [Compound 119, (3S,4S)-8-(5-((2-chloro-3-(pyridine-3-amino)phenyl)mercapto)pyrimidine-2-yl)-3-me thyl-2-oxa-8-azaspiro[4.5]decane-4-amine], the concentration for half-maximal inhibition (IC50) was at most 10 nM.

In the case of `C[C@@H]1OCC2(CCN(c3ncc(Sc4cccc(Nc5ncccn5)c4Cl)cn3)CC2)[C@@H]1N` [Compound 120, (3S,4S)-8-(5-((2-chloro-3-(pyrimidine-2-amino)phenyl)mercapto)pyrimidine-2-yl)-3-methyl-2-oxa-8-azaspiro[4.5]decane-4-amine], the IC50 was at most 10 nM.

Turning to `C[C@@H]1OCC2(CCN(c3ncc(Sc4cccc(Nc5cnccn5)c4Cl)cn3)CC2)[C@@H]1N` [Compound 121, (3S,4S)-8-(5-((2-chloro-3-(pyrazine-2-amino)phenyl)mercapto)pyrimidine-2-yl)-3-me thyl-2-oxa-8-azaspiro[4.5]decane-4-amine], the concentration for half-maximal inhibition (IC50) was at most 10 nM.

As to `C[C@@H]1OCC2(CCN(c3ncc(Sc4cccc(Nc5ccncn5)c4Cl)cn3)CC2)[C@@H]1N` [Compound 122, (3S,4S)-8-(5-((2-chloro-3-(pyrimidine-4-amino)phenyl)mercapto)pyrimidine-2-yl)-3-methyl-2-oxa-8-azaspiro[4.5]decane-4-amine], the IC50 was at most 10 nM.

Consider `C[C@@H]1OCC2(CCN(c3ncc(Sc4cccc(NC(=O)c5ncccn5)c4Cl)cn3)CC2)[C@@H]1N` [Compound 123, N-(3-((2-((3S,4S)-4-amino-3-methyl-2-oxa-8-azaspiro[4.5]decane-8-yl I)pyrimidine-5-yl)mercapto)-2-chlorophenyl)pyrimidine-2-carboxamide], for which the IC50 was at most 10 nM.

On to `C[C@@H]1OCC2(CCN(c3ncc(Sc4cccc(NC(=O)c5ccncn5)c4Cl)cn3)CC2)[C@@H]1N` [Compound 124, N-(3-((2-((3S,4S)-4-amino-3-methyl-2-oxa-8-azaspiro[4.5]decane-8-yl of 1)pyrimidine-5-yl)mercapto)-2-chlorophenyl)pyrimidine-4-carboxamide], for which the IC50 was at most 10 nM.

Regarding `C[C@@H]1OCC2(CCN(c3ncc(Sc4cccc(NC(=O)c5ccccn5)c4Cl)cn3)CC2)[C@@H]1N` [Compound 125, N-(3-((2-((3S,4S)-4-amino-3-methyl-2-oxa-8-azaspiro[4.5]decane-8-yl)pyrimidine-5-yl)mercapto)-2-chlorophenyl)pyridine-2-carboxamide], the IC50 is at most 10 nM.

On to `C[C@@H]1OCC2(CCN(c3ncc(Sc4cccc(NC(=O)c5cnccn5)c4Cl)cn3)CC2)[C@@H]1N` [Compound 126, N-(3-((2-((3S,4S)-4-amino-3-methyl-2-oxa-8-azaspiro[4.5]decane-8-yl)pyrimidine-5-yl)mercapto)-2-chlorophenyl)pyrazine-2-carboxamide], for which the half-inhibitory concentration (IC50) was at most 10 nM.

With `CCn1ccc(-c2cccc(Sc3ccc(N4CCC5(CC4)CO[C@@H](C)[C@H]5N)nn3)c2Cl)n1` [Compound 127, (3S,4S)-8-(3-((2-chloro-3-(1-ethyl-1H-pyrazole-3-yl)phenyl)mercapto)pyridazine-6-yl)-3-methyl-2-oxa-8-azaspiro[4.5]decane-4-amine], the IC50 is at most 10 nM.

Take `CCn1ccc(-c2cccc(Sc3nnc(N4CCC5(CC4)CO[C@@H](C)[C@H]5N)nn3)c2Cl)n1` [Compound 128, (3S,4S)-8-(3-((2-chloro-3-(1-ethyl-1H-pyrazole-3-yl)phenyl)mercapto)-tetrazine-6-yl)-3-methyl-2-oxa-8-azaspiro[4.5]decane-4-amine]: the IC50 is at most 10 nM.

Regarding `CCn1ccc(-c2cccc(Sc3ncc(N4CCC5(CC4)CO[C@@H](C)[C@H]5N)nn3)c2Cl)n1` [Compound 129, (3S,4S)-8-(3-((2-chloro-3-(1-ethyl-1H-pyrazole-3-yl)phenyl)mercapto)-1,2,4-triazine-6-yl)-3-methyl-2-oxa-8-azaspiro[4.5]decane-4-amine], the IC50 is at most 10 nM.
